Experimental data from BindingDB's records for doi:10.1021/jm00133a021 (1981).

Target: Angiotensin-converting enzyme (ACE1)
Experiment: Concentration required for 50% inhibition of Angiotensin I converting enzyme

## CCCC(C(=O)O)N1CCCC(CSC(C)=O)C1=O (configuration not stated) [2-(3-Acetylsulfanylmethyl-2-oxo-piperidin-1-yl)-pentanoic acid]
  IC50: 30 µM

## CC(=O)SCC1CCCN(C(C)C(=O)O)C1=O (configuration not stated) [2-(3-Acetylsulfanylmethyl-2-oxo-piperidin-1-yl)-propionic acid]
  IC50: 35 µM

## CC(=O)SCC1CCCN(CC(=O)O)C1=O (configuration not stated) [(3-Acetylsulfanylmethyl-2-oxo-piperidin-1-yl)-acetic acid]
  IC50: 100 µM

## CC(=O)SCC1CCCN(C(C(=O)O)c2ccccc2)C1=O (configuration not stated) [(3-Acetylsulfanylmethyl-2-oxo-piperidin-1-yl)-phenyl-acetic acid]
  IC50: 19 µM

## CC(=O)SCC1CCN(CC(=O)O)C1=O (configuration not stated) [(3-Acetylsulfanylmethyl-2-oxo-pyrrolidin-1-yl)-acetic acid]
  IC50: 33 µM

## O=C(O)CN1CCCC(CS)C1=O (configuration not stated) [(3-Mercaptomethyl-2-oxo-piperidin-1-yl)-acetic acid]
  IC50: 1 µM

## O=C(O)CN1CCC(CS)C1=O (configuration not stated) [(3-Mercaptomethyl-2-oxo-pyrrolidin-1-yl)-acetic acid]
  IC50: 3.7 µM
